Source: patent publication US9399032B2, “Methods and compositions for treating degenerative and ischemic disorders” (The General Hospital Corporation, priority 2009, dated 2016)
Where a name gives a salt, the structure may show the parent alone.

How the values were obtained:
[1] = system: human skin fibroblasts, mouse striatal cells, human embryonic kidney cells, and Hela cells; experiment: OCR and ECAR in other cell types; type: cell-based; settings: 50 μM, 200 minutes
Method: The OCR and ECAR measurements on HeLa, 293, and STHdh^Q7/7 mouse striatal cells were carried out by growing them in XF24 plates at 40,000/well (HeLa) and STHdh^Q7/7 mouse striatal cells) and 60,000/well (293 cells) for ˜20 hours in their regular growth conditions. The assay medium was the same as above except that 25 mM glucose was used as the sugar source. The measurements were performed simultaneously every 7 minutes after a 2 minute mix and 2 minute wait period for MCH fibroblasts and every 6 minutes (with 2 minutes mix and 2 minute wait) for HeLa, 293, and STHdh^Q7/7 mouse striatal cells. Three baseline measurements were recorded prior to the addition of oligomycin (Biochemika 75352), Antimycin (Sigma A8674), roetnone (Sigma R8875), carbonyl cyanide 3-chlorophenylhydrazone (Sigma C2759) and meclizine hydrochloride (MSDiscovery 01500376). 50 mM stock solution of meclizine was made in DMSO, which was diluted to specified concentration in assay medium and its pH was adjusted to 7.4 by 1N Sodium hydroxide solution. The measurements were carried out at 33° C. for mouse striatal cells but for all other cell types measurement were done at 37° C.

[2] = system: primary cardiomyocytes isolated from rat heart; experiment: Respiration in primary cardiomyocytes; type: cell-based; settings: 20 min exposure
Method: Cardiomyocytes were exposed to the indicated concentration of meclizine for 20 min followed by oxygen measurement in the respiration chamber. Typical respiration traces are shown.
Meclizine was confirmed to shift a cell's relative reliance on OXPHOS versus glycolysis by whole cell bioenergetic kinetic assays. […] This was true in primary cardiomyocytes isolated from rat heart (FIG. 3K) and primary cortical neurons isolated from mouse embryos (FIG. 3L). Cardiomyocytes were exposed to the indicated concentration of meclizine for 20 min followed by oxygen measurement in a respiration chamber. Oxygen consumption rate (OCR) measurements were made following meclizine (5 and 10 μM) or antimycin (1 μM) addition at time 0 (min) in mouse primary cortical neurons obtained from day E14-15 embryos.

MCH58 fibroblasts = experiment: Global gene expression profile and quantitative RT-PCR; type: cell-based, human
Method: Next, a global gene expression profile was performed on fibroblasts following a six hour meclizine treatment (i.e., a time point having maximal OXPHOS inhibition). Oligonucleotide microarray experiments were conducted as follows. Total RNA was extracted from ˜2 million MCH58 cells with RNeasy mini kit (Qiagen). Cells were either grown in 10 mM glucose or 10 mM galactose for 3 passages and for the drug treated samples, and treated with either 0.1% DMSO or 50 μM meclizine for 6 hours. 10 ug of RNA was used to synthesize cDNA with a T7-(dT)24 primer and the SuperScript one-cycle cDNA synthesis kit (Affymetrix). cRNA labeling, hybridization to human U133 plus 2.0 oligonucleotide array (Affymetrix, CA), washing and staining were performed as recommended by Affymetrix. For each condition, 3 biological replicates were used for the total of 6 arrays. GLS expression was confirmed by quantitative RT-PCR using TaqMan assay (Applied Biosystems).

293 cells = experiment: Uncoupler (CCCP)-stimulated respiration in intact cells; type: cell-based; settings: 25 μM, 6 hours pre-treatment
Method: 293 cells pre-treated with 25 μM meclizine for 6 hours fail to stimulate oxygen consumption to the same extent as DMSO treated controls after treatment with CCCP. Data expressed as mean±SD (n=3; *p value<0.01).
The upregulation of phosphoethanolamine was confirmed by orthogonal chromatography, as well as via ^31P-NMR. […] Previous studies have shown that phosphoethanolamine can be elevated in tumor cells, and that ethanolamine and PEA can directly silence mitochondrial OXPHOS. Zhu et al., J Lipid Res 49: 2197 (2008); and Modica-Napolitano et al., Biol Psychiatry 55:273 (2004). To test the effect of phosphoethanolamine (PEA) on mitochondrial respiration, mitochondria were incubated with varying concentration of phosphoethanolamine for ˜1 min prior to the addition of 2.5 mM glutamate and 2.5 mM malate followed by the addition of 1 μM CCCP. […] See FIGS. 16A and 16B, respectively.

[3] = system: STHdhQ111/111 striatal cells; experiment: Viability of mutant huntingtin striatal cells after serum withdrawal (CellTiter-Glo); type: cell-based, murine
Method: Wherever indicated, mutant (STHdh^Q111/111) striatal cells were grown in serum free media for ˜24 hours before ATP measurement. Luminescence was measured in DTX880 multimode detector. Multiple concentrations (between 100 μM and 0.5 μM) of rotenone, antimycin, oligomycin, meclizine, hydroxyzine (Spectrum chemical), thiethylperazine (Prestwick), cyproheptadine (Sigma), pyrilamine (Spectrum chemical), tripelennamine (Spectrum chemical), diphenhydramine (Spectrum chemical), clemastine (Prestwick), bromopheniramine (Spectrum chemical), pheniramine (Spectrum chemical), promethazine (MSDiscovery 01500510), atropine (Sigma), and scopolamine (Sigma) were tested for their protective effect on STHdh^Q111/111 cells in serum free media. The dose which conferred maximum protection is shown. Luminescence was measured in DTX880 multimode detector.
Although it is not necessary to understand the mechanism of an invention, it is believed that the observed cell survival may be due to suppressed apoptosis based on caspase 3 and 7 cleavage. Improved cell viability was confirmed by microscopy.

[4] = system: Adult rat ventricular cardiomyocytes; experiment: Simulated ischemia-reperfusion injury in isolated cardiomyocytes; type: cell-based
Method: The ability of meclizine to protect isolated cardiomyocytes and isolated hearts from ischemic injury was investigated as follows Adult rat ventricular cardiomyocytes were isolated by endotoxin-free collagenase perfusion, and the simulated ischemia-reperfusion injury was performed as previously described (Wojtovich and Brookes, Basic Res. Cardiol., 104:121-129 (2009)). Control cells were exposed to DMSO for 20 minutes. Test cells were exposed to either vehicle or doses of meclizine for 20 minutes, which was washed out before being subjected to ischemia for 60 minutes followed by reperfusion for 30 minutes under normoxic conditions in normoxic glucose-replete buffer at pH 7.4. Cell viability was assayed by Trypan blue exclusion. VO2 was assessed by isolating mitochondria and measuring both respirating cells and mitochondria using a Clark oxygen electrode (Wojtovich, supra).

C2C12 myotubes = experiment: [3H]-2-deoxyglucose uptake; type: cell-based; settings: 50 micromolar, four hours
Method: Fully differentiated C2C12 myotubes were subjected to a glucose uptake protocol, as follows. Briefly, C2C12 myotube cells were incubated for four hours in serum-free media containing either 0.1% DMSO as a control, 50 micromolar meclizine, 50 micromolar S-meclizine, or 2 mM metformin. Cells were subsequently incubated for thirty minutes in serum and glucose free buffer and then transitioned to buffer containing [3H]-2-deoxyglucose for five minutes. After multiple wash steps, cells were lysed and the lysate was subjected to scintillation counting to quantify uptake. Data were prepared as raw counts per minute, which is proportional to 2-deoxyglucose uptake.

With `Cc1cccc(CN2CCN(C(c3ccccc3)c3ccc(Cl)cc3)CC2)c1` (racemic) [Meclizine, meclizine hydrochloride] the “oxygen consumption and extracellular acidification rate in other cell types” value [1] was “reductions in oxygen consumption and concomitant increase in extracellular acidification rate”, the “respiration in primary cardiomyocytes” value [2] was “inhibits respiration” and the “HK2 expression fold change” value (MCH58 fibroblasts; 50 μM, 6 hours) was 1.5 fold. The TXNIP expression downregulated (MCH58 fibroblasts; 50 μM, 6 hours) was 35%, the “GLS expression downregulated (microarray)” value (MCH58 fibroblasts; 50 μM, 6 hours, relative to vehicle) was about 40% and the “reduction in GLS transcript by quantitative real-time PCR” value (MCH58 fibroblasts; 6 hours of treatment) was 50%. For the same compound, the “uncoupler-stimulated respiration in intact cells” value (293 cells) was “blunts uncoupler-stimulated respiration”, the EC50 ([3]; Mus musculus, STHdhQ111, 24 hours after removal of serum, read-out: EC50 of cell survival (rescue)) was about 17.3 µM and the “protection of STHdhQ111/111 cells after serum withdrawal” value ([3]; serum free media, 24 hours) was “conferred the most protection”. For the same compound, the “protection against I/R at high concentrations” value ([4]; 50 μM and 100 μM) was “not observed”, the “protection of cardiomyocytes against I/R (cell viability, Trypan blue)” value ([4]; 60 minutes ischemia, 30 minutes reperfusion) was “protected cardiomyocytes against I/R at various concentrations” and the VO2 in cardiomyocytes ([4]; compared to DMSO treated cells) was “decrease in VO2”. For the same compound, the basal glucose uptake (C2C12 myotubes) was “promoted increased basal glucose uptake”.
